According to ChEMBL document CHEMBL1156506, “Changes to the HIV long terminal repeat and to HIV integrase differentially impact HIV integrase assembly, activity, and the binding of strand transfer inhibitors” (J Biol Chem, 2007):

What was measured:
Conditions in all cases: tested as the 3H-labelled form
[1] = tested on: Human immunodeficiency virus type 1 integrase (Human immunodeficiency virus 1), Q7ZJM1 [Q148R]; experiment: Binding affinity to HIV recombinant integrase Q148R mutant using U5 GTC LTR relative to wild type LTR
[2] = tested on: Human immunodeficiency virus; experiment: Inhibition of HIV wild type integrase assessed as strand transfer activity using U5 ATCA LTR by scintillation proximity assay relative to wild type LTR; design: scale not given: the % may be the effect or the level left
[3] = tested on: Human immunodeficiency virus; experiment: Inhibition of HIV wild type integrase assessed as strand transfer activity usingU5 GTCA/CT LTR by scintillation proximity assay relative to wild type LTR; design: scale not given: the % may be the effect or the level left
[4] = tested on: Human immunodeficiency virus; experiment: Inhibition of HIV wild type integrase assessed as specific strand transfer activity using U5 GTCA LTR by scintillation proximity assay relative to wild type LTR; design: scale not given: the % may be the effect or the level left
[5] = tested on: Human immunodeficiency virus type 1 integrase (Human immunodeficiency virus 1), Q7ZJM1 [N155H]; experiment: Inhibition of HIV recombinant integrase N155H mutant assessed as specific strand transfer activity using U5 INTCA LTR by scintillation proximity assay relative to wild type LTR; design: scale not given: the % may be the effect or the level left
[6] = tested on: Human immunodeficiency virus; experiment: Inhibition of HIV wild type integrase assessed as strand transfer activity using U5 GTC LTR by scintillation proximity relative; design: scale not given: the % may be the effect or the level left
[7] = tested on: Human immunodeficiency virus; experiment: Inhibition of HIV wild type integrase assessed as specific strand transfer activity using U5 GGCA LTR by scintillation proximity assay relative to wild type LTR; design: scale not given: the % may be the effect or the level left
[8] = tested on: Human immunodeficiency virus; experiment: Inhibition of HIV wild type integrase assessed as specific strand transfer activity using U5 GACA LTR by scintillation proximity assay relative to wild type LTR; design: scale not given: the % may be the effect or the level left
[9] = tested on: Human immunodeficiency virus type 1 integrase (Human immunodeficiency virus 1), Q7ZJM1 [N155H]; experiment: Inhibition of HIV recombinant integrase N155H mutant assessed as strand transfer activity using U5 ApTCA LTR by scintillation proximity assay relative to wild type LTR; design: scale not given: the % may be the effect or the level left
[10] = tested on: Human immunodeficiency virus type 1 integrase (Human immunodeficiency virus 1), Q7ZJM1 [N155H]; experiment: Inhibition of HIV recombinant integrase N155H mutant assessed as strand transfer activity using U5 TTCA LTR by scintillation proximity assay relative to wild type LTR; design: scale not given: the % may be the effect or the level left
[11] = tested on: Human immunodeficiency virus; experiment: Inhibition of HIV wild type integrase assessed as strand transfer activity using U5 GTGT LTR by scintillation proximity assay relative to wild type LTR; design: scale not given: the % may be the effect or the level left
[12] = tested on: Human immunodeficiency virus type 1 integrase (Human immunodeficiency virus 1), Q7ZJM1 [Q148R]; experiment: Binding affinity to HIV recombinant integrase Q148R mutant using U5 GTCA LTR relative to wild type LTR
[13] = tested on: Human immunodeficiency virus type 1 integrase (Human immunodeficiency virus 1), Q7ZJM1 [Q148R]; experiment: Inhibition of U5 GTCA LTR HIV recombinant integrase Q148R mutant assessed as specific strand transfer activity using by scintillation proximity assay relative to wild type LTR; design: scale not given: the % may be the effect or the level left
[14] = tested on: Human immunodeficiency virus type 1 integrase (Human immunodeficiency virus 1), Q7ZJM1 [Q148R]; experiment: Inhibition of U5 GdCA LTR HIV recombinant integrase Q148R mutant assessed as specific strand transfer activity using by scintillation proximity assay relative to wild type LTR; design: scale not given: the % may be the effect or the level left
[15] = tested on: Human immunodeficiency virus; experiment: Inhibition of HIV wild type integrase assessed as specific strand transfer activity using U5 TTCA LTR by scintillation proximity assay relative to wild type LTR; design: scale not given: the % may be the effect or the level left
[16] = tested on: Human immunodeficiency virus; experiment: Binding affinity to HIV wild type integrase using U5 GTCAGT LTR relative to wild type LTR
[17] = tested on: Human immunodeficiency virus; experiment: Binding affinity to HIV wild type integrase using U5 GddA LTR relative to wild type LTR
[18] = tested on: Human immunodeficiency virus; experiment: Inhibition of HIV wild type integrase assessed as strand transfer activity using U5 GTAG LTR by scintillation proximity assay relative to wild type LTR; design: scale not given: the % may be the effect or the level left
[19] = tested on: Human immunodeficiency virus; experiment: Binding affinity to HIV wild type integrase using U5 GTAG LTR relative to wild type LTR
[20] = tested on: Human immunodeficiency virus type 1 integrase (Human immunodeficiency virus 1), Q7ZJM1 [N155H]; experiment: Inhibition of HIV recombinant integrase N155H mutant assessed as specific strand transfer activity using U5 GTdA LTR by scintillation proximity assay relative to wild type LTR; design: scale not given: the % may be the effect or the level left
[21] = tested on: Human immunodeficiency virus; experiment: Binding affinity to HIV wild type integrase U5 CTCA LTR relative to wild type LTR
[22] = tested on: Human immunodeficiency virus; experiment: Binding affinity to HIV wild type integrase using U5 GInCA LTR relative to wild type LTR
[23] = tested on: Human immunodeficiency virus; experiment: Binding affinity to HIV wild type integrase using U5 GTAT LTR relative to wild type LTR
[24] = tested on: Human immunodeficiency virus; experiment: Inhibition of HIV wild type integrase assessed as specific strand transfer activity using U5 INTCA LTR by scintillation proximity assay relative to wild type LTR; design: scale not given: the % may be the effect or the level left
[25] = tested on: Human immunodeficiency virus; experiment: Inhibition of HIV wild type integrase assessed as specific strand transfer activity using U5 GInCA LTR by scintillation proximity assay relative to wild type LTR; design: scale not given: the % may be the effect or the level left
[26] = tested on: Human immunodeficiency virus; experiment: Inhibition of HIV wild type integrase assessed as strand transfer activity using U5 GTCACA LTR by scintillation proximity assay relative to wild type LTR; design: scale not given: the % may be the effect or the level left
[27] = tested on: Human immunodeficiency virus; experiment: Inhibition of HIV wild type integrase assessed as specific strand transfer activity using U5 GdCA LTR by scintillation proximity assay relative to wild type LTR; design: scale not given: the % may be the effect or the level left
[28] = tested on: Human immunodeficiency virus; experiment: Binding affinity to HIV wild type integrase using U5 GTGC LTR relative to wild type LTR
[29] = tested on: Human immunodeficiency virus type 1 integrase (Human immunodeficiency virus 1), Q7ZJM1 [N155H]; experiment: Inhibition of HIV recombinant integrase N155H mutant assessed as strand transfer activity using U5 GTC LTR by scintillation proximity assay relative to wild type LTR; design: scale not given: the % may be the effect or the level left
[30] = tested on: Human immunodeficiency virus; experiment: Binding affinity to HIV wild type integrase using U5 GTGT LTR relative to wild type LTR
[31] = tested on: Human immunodeficiency virus type 1 integrase (Human immunodeficiency virus 1), Q7ZJM1 [N155H]; experiment: Binding affinity to HIV recombinant integrase N155H mutant using U5 GdCA LTR relative to wild type LTR
[32] = tested on: Human immunodeficiency virus type 1 integrase (Human immunodeficiency virus 1), Q7ZJM1 [N155H]; experiment: Inhibition of HIV recombinant integrase N155H mutant assessed as strand transfer activity using U5 GTdA LTR by scintillation proximity assay relative to wild type LTR; design: scale not given: the % may be the effect or the level left
[33] = tested on: Human immunodeficiency virus; experiment: Binding affinity to HIV wild type integrase using U5 INTCA LTR relative to wild type LTR
[34] = tested on: Human immunodeficiency virus; experiment: Binding affinity to HIV wild type integrase using U5 GTTC LTR relative to wild type LTR
[35] = tested on: Human immunodeficiency virus; experiment: Inhibition of HIV wild type integrase assessed as strand transfer activity U5 CTCA LTR by scintillation proximity assay relative to wild type LTR; design: scale not given: the % may be the effect or the level left
[36] = tested on: Human immunodeficiency virus; experiment: Binding affinity to HIV wild type integrase using U5 GTCA/CddC LTR relative to wild type LTR
[37] = tested on: Human immunodeficiency virus; experiment: Binding affinity to HIV wild type integrase using U5 TTCA LTR relative to wild type LTR
[38] = tested on: Human immunodeficiency virus type 1 integrase (Human immunodeficiency virus 1), Q7ZJM1 [N155H]; experiment: Binding affinity to HIV recombinant integrase N155H mutant using U5 GTC LTR relative to wild type LTR
[39] = tested on: Human immunodeficiency virus type 1 integrase (Human immunodeficiency virus 1), Q7ZJM1 [N155H]; experiment: Inhibition of HIV recombinant integrase N155H mutant assessed as specific strand transfer activity using U5 TTCA LTR by scintillation proximity assay relative to wild type LTR; design: scale not given: the % may be the effect or the level left
[40] = tested on: Human immunodeficiency virus; experiment: Inhibition of HIV wild type integrase assessed as strand transfer activity using U5 GTGA LTR by scintillation proximity assay relative to wild type LTR; design: scale not given: the % may be the effect or the level left
[41] = tested on: Human immunodeficiency virus; experiment: Inhibition of HIV wild type integrase assessed as strand transfer activity using U5 GTTC LTR by scintillation proximity assay relative to wild type LTR; design: scale not given: the % may be the effect or the level left
[42] = tested on: Human immunodeficiency virus type 1 integrase (Human immunodeficiency virus 1), Q7ZJM1 [Q148R]; experiment: Binding affinity to HIV recombinant integrase Q148R mutant using U5 TTCA LTR relative to wild type LTR
[43] = tested on: Human immunodeficiency virus; experiment: Inhibition of HIV wild type integrase assessed as strand transfer activity using U5 GTAA LTR by scintillation proximity assay relative to wild type LTR; design: scale not given: the % may be the effect or the level left
[44] = tested on: Human immunodeficiency virus type 1 integrase (Human immunodeficiency virus 1), Q7ZJM1 [Q148R]; experiment: Inhibition of U5 GTdA LTR HIV recombinant integrase Q148R mutant assessed as specific strand transfer activity using by scintillation proximity assay relative to wild type LTR; design: scale not given: the % may be the effect or the level left

## Cn1c(N2CCCCS2(=O)=O)nc(C(=O)NCc2ccc(F)cc2)c(O)c1=O [BMS-707035]
[1]
  Activity: 5%
[2]
  Activity: 75%
[3]
  Activity: < 25%
[4]
  Activity: 100%
[5]
  Activity: 135%
[6]
  Activity: 109%
[7]
  Activity: 8%
[8]
  Activity: 97%
[9]
  Activity: 2%
[10]
  Activity: 4%
[11]
  Activity: 25%
[12]
  Activity: 3%
[13]
  Activity: 93%
[14]
  Activity: 3%
[15]
  Activity: 154%
[16]
  Activity: 75%
[17]
  Activity: 35%
[18]
  Activity: < 25%
[19]
  Activity: < 25%
[20]
  Activity: 35%
[21]
  Activity: < 25%
[22]
  Activity: 28%
[23]
  Activity: < 25%
[24]
  Activity: 167%
[25]
  Activity: 115%
[26]
  Activity: 75%
[27]
  Activity: 103%
[28]
  Activity: 25%
[29]
  Activity: 90%
[30]
  Activity: 25%
[31]
  Activity: 21%
[32]
  Activity: 17%
[33]
  Activity: 62%
[34]
  Activity: 25%
[35]
  Activity: 40%
[36]
  Activity: 75%
[37]
  Activity: 8%
[38]
  Activity: 4%
[39]
  Activity: > 20%
[40]
  Activity: 90%
[41]
  Activity: 25%
[42]
  Activity: 1%
[43]
  Activity: < 25%
[44]
  Activity: > 50%
